What was measured:
[1] = system: MIA PaCa-2 human pancreatic carcinoma; experiment: MIA PaCa-2 CCK-8 proliferation assay; type: cell-based; conditions: MIA PaCa-2 cells
Summary of the method: (§1)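 Proliferation of mutant-KRAS(G12C) cells (2 copies in MIA PaCa-2, single copy in NCI-H358/NCI-H23) measured with CCK-8 after treatment across 20 μM–1.02 nM; inhibition expressed relative to vehicle-treated wells after subtracting no-cell background.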

KRAS(G12C) [2] = target: T1, KRAS(G12C) (Homo sapiens, UniProt P01116, G12C); experiment: KRAS(G12C) Western blot protein degradation assay in LU65A cells; type: cell-based; design: LU65A human lung cancer cell line, which expresses KRAS(G12C); host or cells: LU65A; conditions: 6 hr
T1 sequence (P01116 1-188 isoform P01116-2 G12C): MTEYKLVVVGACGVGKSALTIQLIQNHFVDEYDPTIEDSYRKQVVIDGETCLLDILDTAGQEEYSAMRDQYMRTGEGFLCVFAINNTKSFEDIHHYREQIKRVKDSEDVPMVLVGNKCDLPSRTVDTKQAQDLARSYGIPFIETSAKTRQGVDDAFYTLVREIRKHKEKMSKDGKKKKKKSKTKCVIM
Experimental: The following cancer cell lines were employed: BT-474 human breast carcinoma (ATCC, #HTB-20); MIA PaCa-2 human pancreatic carcinoma [2 copies KRAS(G12C)](ATCC, #CRL-1420); NCI-H23 human non-small cell lung cancer [1 copy KRAS(G12C)](ATCC, #CRL-5800); NCI-H358 human non-small cell lung cancer [1 copy KRAS(G12C)](ATCC, #CRL-5807); LU65A human lung carcinoma (Pharmaron, Beijing, China). Cell lines were cultured essentially according to ATCC and Pharmaron recommendations.
KRAS(G12C) Western Blot Protein Degradation Assay
The MIA PaCa-2 human pancreatic carcinoma cell line and LU65A human lung cancer cell line, which expresses KRAS(G12C), were seeded in 6- or 12-well tissue culture plates, and after 1 hr, test compounds were added at various concentrations and incubated at 37° C./5% CO2 for 48 hr (MIA Paca-2) and 6 hr (LU65A) respectively. Cells were then washed with cold PBS, aspirated and cold RIPA buffer containing a protease/phosphatase inhibitor cocktail was added to lyse cells. After centrifugation, the total protein concentrations of cell lysates were determined using the BCA protein assay. Samples were normalized for equivalent protein concentrations, 5×SDS-PAGE loading buffer added and denatured at 100° C. for 10 min. 20 μl of each sample/well was loaded on a SDS-PAGE gel and electrophoresed for 20 min at 80 V, then 120 V for 1.5 hr. Gels were then electroblotted to nitrocellulose membranes using a wet-transfer method at 250 mA for 2.5 hr. Membranes were incubated with blocking buffer for 1 hr and washed 3 times with TBST for 5 min. Membranes were then incubated with anti-KRAS (Sigma-Aldrich, #SAB1404011) and anti-β-Actin monoclonal antibodies (Cell Signaling Technology, #3700) diluted in blocking buffer at 4° C. overnight per the manufacturer's recommendations. After washing 3 times, blots were incubated with appropriately labeled secondary antibodies for 1 hr at room temperature and washed again. Fluorescence imaging and quantitation was performed using a LI-COR Odyssey. Results was analyzed using GraphPad Prism 7 software. Compound degradation of was determined by the following equation and DC50 values (the concentration at which 50% of the maximal degradation of KRAS occurs) calculated using GraphPad Prism 7 software:
% Inhibition=100−(D−B)/(S−B)*100%. • S: Fluorescence intensity of cells with antibody • D: Fluorescence intensity of compound-treated cells with antibody • B: Fluorescence intensity of cells without antibody

KRAS(G12C) [3] = target: T1, KRAS(G12C); experiment: KRAS(G12C)/SOS1 homogeneous time-resolved fluorescence (HTRF) assay; design: purchased Cisbio 63ADK000CB16PEG; conditions: absence of GTP, 4° C. for 3 hr, read-out: KRAS (G12C) binding
Summary of the method: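 HTRF kit measuring compound-induced block of KRAS(G12C)-SOS1 interaction without GTP. Compounds tested as 3-fold serial dilutions down to 1.02 nM, incubated with reaction components 3 h at 4 °C in sealed plates before fluorescence read.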

[4] = system: NCI-H358 human non-small cell lung cancer; experiment: NCI-H358 CCK-8 proliferation assay; type: cell-based; conditions: NCI-H358 cells, 72 hr
Summary of the method: as §1

HSP90a protein = target: T2, HSP90a protein (Homo sapiens, UniProt P07900); experiment: HSP90α-binding fluorescent polarization (FP) assay, BODIPY-labeled RNK04010 probe; conditions: FP competition with RNK04010 (BODIPY-labeled), 5 nM, 300 min at 25° C.
T2 construct: purchased BPS Bioscience 50298
Summary of the method: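 Polarization signal was read after equilibration at 25° C, for 120 min with FITC-geldanamycin or 300 min with the BODIPY-tagged RNK04010 probe, each at 5 nM final. Compounds spanned 20 μM down to 5.2 nM in 2.5-fold dilutions against the HSP90a N-terminal domain.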

EC50 ([1]; Homo sapiens, MIA PaCa-2, 72 h) [nM] | DC50 (KRAS(G12C) [2]) [nM] | EC50 ([1]; 72 hr) [nM] | IC50 (KRAS(G12C) [3]) [nM] | EC50 [4] [nM] | IC50 (HSP90a protein) [nM] | Compound
> 1000 | 100 to 1000 |  |  |  |  | C=CC(=O)N1CCN(c2nc(OC[C@@H]3C[C@H](N4CCN(Cc5ccc(-n6c(O)nnc6-c6cc(C)c(O)cc6O)cc5)CC4)CN3C)nc3c2CCN(c2cccc4ccccc24)C3)C[C@@H]1CC#N [Compound 270, 2-[(2S)-4-(2-{[(2S,4S)-4-[4-({4-[3-(2,4-dihydroxy-5-methylphenyl)-5-hydroxy-1,2,4-triazol-4-yl]phenyl}methyl)piperazin-1-yl]-1-methylpyrrolidin-2-yl]methoxy}-7-(naphthalen-1-yl)-5H,6H,8H-pyrido[3,4-d]pyrimidin-4-yl)-1-(prop-2-enoyl)piperazin-2-yl]acetonitrile]
 | > 1000 | > 1000 |  |  |  | C=CC(=O)N1CCN(c2nc(OCCN3CCC(C(=O)N4CCN(Cc5ccc(-n6c(C(=O)NCC(F)(F)F)nnc6-c6cc(C)c(O)cc6O)cc5)CC4)CC3)nc3c2CCN(c2cccc4cccc(Cl)c24)C3)C[C@@H]1CC#N [Compound 254, (S)-4-(4-((4-(1-(2-((4-(4-acryloyl-3-(cyanomethyl)piperazin-1-yl)-7-(8-chloronaphthalen-1-yl)-5,6,7,8-tetrahydropyrido[3,4-d]pyrimidin-2-yl)oxy)ethyl)piperidine-4-carbonyl)piperazin-1-yl)methyl)phenyl)-5-(2,4-dihydroxy-5-methylphenyl)-N-(2,2,2-trifluoroethyl)-4H-1,2,4-triazole-3-carboxamide]
 |  |  | > 1000 | 100 to 1000 | 100 to 1000 | CC(C)c1cc(-c2nnc(C(=O)NCC(F)(F)F)n2-c2ccc(CC3CCN(Cc4ccc(CNC(=O)CCNc5nc6c(c(N7CCN(C(=O)C(C)(C)C)CC7)n5)CCN(c5cc(O)cc7ccccc57)C6)cc4)CC3)cc2)c(O)cc1O [Compound 156]
> 1000 |  |  | 100 to 1000 | > 1000 | 100 to 1000 | C=C(F)C(=O)N1CCN(c2nc(OC[C@@H]3CCCN3CCCOCCC(=O)NCc3ccc(-n4c(O)nnc4-c4cc(CC)c(O)cc4O)cc3)nc3c2CCN(c2cccc4cccc(Cl)c24)C3)C[C@@H]1CC#N [Compound 161, 3-(3-((S)-2-(((7-(8-chloronaphthalen-1-yl)-4-((S)-3-(cyanomethyl)-4-(2-fluoroacryloyl)piperazin-1-yl)-5,6,7,8-tetrahydropyrido[3,4-d]pyrimidin-2-yl)oxy)methyl)pyrrolidin-1-yl)propoxy)-N-(4-(3-(5-ethyl-2,4-dihydroxyphenyl)-5-hydroxy-4H-1,2,4-triazol-4-yl)benzyl)propanamide]
> 1000 |  |  | > 1000 | > 1000 | < 100 | C=C(F)C(=O)N1CCN(c2nc(OC[C@@H]3CCCN3CCCOCCC(=O)NCc3ccc(-n4c(O)nnc4-c4cc(C(C)C)c(O)cc4O)cc3)nc3c2CCN(c2cccc4cccc(Cl)c24)C3)C[C@@H]1CC#N [Compound 160, 3-(3-((S)-2-(((7-(8-chloronaphthalen-1-yl)-4-((S)-3-(cyanomethyl)-4-(2-fluoroacryloyl)piperazin-1-yl)-5,6,7,8-tetrahydropyrido[3,4-d]pyrimidin-2-yl)oxy)methyl)pyrrolidin-1-yl)propoxy)-N-(4-(3-(2,4-dihydroxy-5-isopropylphenyl)-5-hydroxy-4H-1,2,4-triazol-4-yl)benzyl)propenamide]
 |  |  | > 1000 | 100 to 1000 | 100 to 1000 | C=CC(=O)N1CCN(c2nc(NCCC(=O)N3CCC(CN4CCN(Cc5ccc(-n6c(C(=O)NCC(F)(F)F)nnc6-c6cc(CC)c(O)cc6O)cc5)CC4)CC3)nc3c2CCN(c2cccc4cccc(Cl)c24)C3)C[C@H]1CC#N [Compound 80, (R)-4-(4-((4-((1-(3-((4-(4-acryloyl-3-(cyanomethyl)piperazin-1-yl)-7-(8-chloronaphthalen-1-yl)-5,6,7,8-tetrahydropyrido[3,4-d]pyrimidin-2-yl)amino)propanoyl)piperidin-4-yl)methyl)piperazin-1-yl)methyl)phenyl)-5-(5-ethyl-2,4-dihydroxyphenyl)-N-(2,2,2-trifluoroethyl)-4H-1,2,4-triazole-3-carboxamide, trifluoroacetic acid]

Further lines, the molecule ahead of its results:

Compound | EC50 ([1]; Homo sapiens, MIA PaCa-2, 72 h) [nM] | DC50 (KRAS(G12C) [2]) [nM] | EC50 ([1]; 72 hr) [nM] | IC50 (KRAS(G12C) [3]) [nM] | EC50 [4] [nM] | IC50 (HSP90a protein) [nM]
C=CC(=O)N1CCN(c2nc(OCCN3CCN(C(=O)C4CCN(Cc5ccc(-n6c(C(N)=O)nnc6-c6cc(C(C)C)c(O)cc6O)cc5)CC4)C[C@@H]3CN(C)C)nc3c2CCN(c2cccc4cccc(Cl)c24)C3)C[C@@H]1CC#N [Compound 260, 4-(4-((4-((S)-4-(2-((4-((S)-4-acryloyl-3-(cyanomethyl)piperazin-1-yl)-7-(8-chloronaphthalen-1-yl)-5,6,7,8-tetrahydropyrido[3,4-d]pyrimidin-2-yl)oxy)ethyl)-3-((dimethylamino)methyl)piperazine-1-carbonyl)piperidin-1-yl)methyl)phenyl)-5-(2,4-dihydroxy-5-isopropylphenyl)-4H-1,2,4-triazole-3-carboxamide] | < 100 | > 1000 |  |  |  | 
C=CC(=O)N1CCN(c2nc(OC[C@@H]3CCCN3C(=O)C3CCN(Cc4ccc(-n5c(O)nnc5-c5cc(C(C)C)c(O)cc5O)cc4)CC3)nc3c2CCN(c2cccc4cccc(C)c24)C3)C[C@@H]1CC#N [Compound 155, 2-((S)-1-acryloyl-4-(2-(((S)-1-(1-(4-(3-(2,4-dihydroxy-5-isopropylphenyl)-5-hydroxy-4H-1,2,4-triazol-4-yl)benzyl)piperidine-4-carbonyl)pyrrolidin-2-yl)methoxy)-7-(8-methylnaphthalen-1-yl)-5,6,7,8-tetrahydropyrido[3,4-d]pyrimidin-4-yl)piperazin-2-yl)acetonitrile, trifluoroacetic acid] |  |  |  | > 1000 | > 1000 | 100 to 1000
CC(=O)N1CCN(c2nc(NCCC(=O)N3CCC(Cc4ccc(CN(C)Cc5ccc(-n6c(C(=O)NCC(F)(F)F)nnc6-c6cc(C(C)C)c(O)cc6O)cc5)cc4)CC3)nc3c2CCN(c2cccc4ccccc24)C3)C[C@H]1CC#N [Compound 123, (R)-4-(4-(((4-((1-(3-((4-(4-acetyl-3-(cyanomethyl)piperazin-1-yl)-7-(naphthalen-1-yl)-5,6,7,8-tetrahydropyrido[3,4-d]pyrimidin-2-yl)amino)propanoyl)piperidin-4-yl)methyl)benzyl)(methyl)amino)methyl)phenyl)-5-(2,4-dihydroxy-5-isopropylphenyl)-N-(2,2,2-trifluoroethyl)-4H-1,2,4-triazole-3-carboxamide, trifluoroacetic acid] | 100 to 1000 |  |  |  | 100 to 1000 | > 1000
CCC(=O)N1CCN(c2nc(NCCC(=O)N3CCC(Cc4ccc(CN(C)Cc5ccc(-n6c(O)nnc6-c6cc(C(C)C)c(O)cc6O)cc5)cc4)CC3)nc3c2CCN(c2cc(O)cc4ccccc24)C3)CC1 [Compound 63, trifluoroacetic acid] | > 1000 |  |  |  | 100 to 1000 | 100 to 1000
